From patent publication US8921389B2, “Naphthyridine derivatives as inhibitors of hypoxia inducible factor (HIF) hydroxylase” (Fibrogen, Inc., priority 2011, dated 2014)

target: HIF-PH2 (EGLN1) (Homo sapiens (Human), UniProt Q9GZT9); assay: HIF-PH assay (14CO2 capture, peptide-dependent turnover); assay type: biochemical; settings: enzyme inhibition against HIF-PH2; peptide-dependent percent turnover
Excerpt: Ketoglutaric acid α-[1-^14C]-sodium salt, alpha-ketoglutaric acid sodium salt, and HPLC purified peptide may be obtained from commercial sources, e.g., Perkin-Elmer (Wellesley Mass.), Sigma-Aldrich, and SynPep Corp. (Dublin Calif.), respectively. […] For example, a HIF peptide for use in the HIF-PH assay is [methoxycoumarin]-[…]-amide. HIF-PH, e.g., HIF-PH2 (EGLN1), can be expressed in, e.g., insect Hi5 cells, and partially purified, e.g., through a SP ion exchange chromatography column. […] Reactions are initiated by addition of HIF-PH enzyme.
The peptide-dependent percent turnover is calculated by subtracting percent turnover in the absence of peptide from percent turnover in the presence of substrate peptide. Percent inhibition and IC50 are calculated using peptide-dependent percent turnover at given inhibitor concentrations. Calculation of IC50 values for each inhibitor is conducted using GraFit software (Erithacus Software Ltd., Surrey UK).
Representative compounds of the disclosure were analyzed using the HIF-PH assay described above.

Chain of HIF-PH2 (EGLN1) (Q9GZT9 whole entry): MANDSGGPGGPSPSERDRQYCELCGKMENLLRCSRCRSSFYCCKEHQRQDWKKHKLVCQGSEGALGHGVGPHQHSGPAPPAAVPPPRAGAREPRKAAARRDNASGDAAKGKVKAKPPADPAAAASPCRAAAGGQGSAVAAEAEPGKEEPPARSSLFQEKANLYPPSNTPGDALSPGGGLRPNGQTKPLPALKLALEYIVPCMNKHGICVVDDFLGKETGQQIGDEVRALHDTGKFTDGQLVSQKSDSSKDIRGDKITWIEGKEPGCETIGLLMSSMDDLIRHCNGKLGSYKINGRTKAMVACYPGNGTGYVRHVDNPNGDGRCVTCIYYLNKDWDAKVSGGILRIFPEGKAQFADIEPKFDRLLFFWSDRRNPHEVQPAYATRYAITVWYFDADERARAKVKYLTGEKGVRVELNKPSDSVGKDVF

SMILES | IC50
N#Cc1nc(C(=O)NCCN2CCOCC2)c(O)c2ccn(Cc3ccccc3)c(=O)c12 [Example 59, 7-Benzyl-1-cyano-4-hydroxy-8-oxo-7,8-dihydro-[2,7]naphthyridine-3-carboxylic acid (2-morpholin-4-yl-ethyl)-amide] | > 200 µM
CN(CCNC(=O)c1ncc2ccc(=O)n(Cc3ccccc3)c2c1O)S(C)(=O)=O [Example 105, 1-Benzyl-8-hydroxy-2-oxo-1,2-dihydro-[1,6]naphthyridine-7-carboxylic acid [2-(methanesulfonyl-methyl-amino)-ethyl]amide] | > 200 µM
N#Cc1nc(C(=O)NCCCCC(=O)O)c(O)c2ccn(Cc3ccccc3)c(=O)c12 [Example 52, 5-[(7-Benzyl-1-cyano-4-hydroxy-8-oxo-7,8-dihydro-[2,7]naphthyridine-3-carbonyl)-amino]-pentanoic acid] | > 200 µM
O=C(NCCNC(=O)C(F)(F)F)c1ncc2c(cc(-c3ccccc3)c(=O)n2Cc2ccccc2)c1O [Example 109, 1-Benzyl-5-hydroxy-2-oxo-3-phenyl-1,2-dihydro-[1,7]naphthyridine-6-carboxylic acid [2-(2,2,2-trifluoro-acetylamino)-ethyl]-amide] | > 200 µM
CC(C)NC(=O)NCCNC(=O)c1ncc2c(=O)n(Cc3ccccc3)ccc2c1O [Example 89, 7-Benzyl-4-hydroxy-8-oxo-7,8-dihydro-[2,7]naphthyridine-3-carboxylic acid [2-(3-isopropyl-ureido)-ethyl]-amide] | > 200 µM
COc1ccc(Cn2ccc3c(O)c(C(=O)NCc4ccc(F)cc4)ncc3c2=O)c(OC)c1 [Example 78, 7-(2,4-Dimethoxy-benzyl)-4-hydroxy-8-oxo-7,8-dihydro-[2,7]naphthyridine-3-carboxylic acid 4-fluoro-benzylamide] | > 200 µM
CC(C)(CNC(=O)c1nc(C#N)c2c(=O)n(Cc3ccccc3)ccc2c1O)C(=O)O [Example 50, 3-[(7-Benzyl-1-cyano-4-hydroxy-8-oxo-7,8-dihydro-[2,7]naphthyridine-3-carbonyl)-amino]-2,2-dimethyl-propionic acid] | > 200 µM

Other lines, results leading:

IC50 | SMILES
> 200 µM | CC(C)(CNC(=O)c1ncc2ccc(=O)n(Cc3ccccc3)c2c1O)C(=O)O [Example 71, 3-[(1-Benzyl-8-hydroxy-2-oxo-1,2-dihydro-[1,6]naphthyridine-7-carbonyl)-amino]-2,2-dimethyl-propionic acid]
> 200 µM | CNC(=O)c1ncc2ccc(=O)n(Cc3ccccc3)c2c1O [Example 75, 1-Benzyl-8-hydroxy-2-oxo-1,2-dihydro-[1,6]naphthyridine-7-carboxylic acid methylamide]
199 µM | Cc1ncccc1-c1nc(C(=O)NCCC(=O)O)c(O)c2cc(-c3ccccc3)c(=O)n(Cc3ccccc3)c12 [Example 178, 3-{[1-Benzyl-5-hydroxy-8-(2-methyl-pyridin-3-yl)-2-oxo-3-phenyl-1,2-dihydro-[1,7]naphthyridine-6-carbonyl]-amino}-propionic acid]
> 200 µM | CC(C)(CNC(=O)c1nc(-c2cncc(F)c2)c2c(=O)n(Cc3ccccc3)ccc2c1O)C(=O)O [Example 88, 3-{[7-Benzyl-1-(5-fluoro-pyridin-3-yl)-4-hydroxy-8-oxo-7,8-dihydro-[2,7]naphthyridine-3-carbonyl]-amino}-2,2-dimethyl-propionic acid]
200 µM | O=C(O)CCNC(=O)c1nc(-c2cscn2)c2c(cc(-c3ccccc3)c(=O)n2Cc2ccccc2)c1O [Example 202, 3-[(1-Benzyl-5-hydroxy-2-oxo-3-phenyl-8-thiazol-4-yl-1,2-dihydro-[1,7]naphthyridine-6-carbonyl)-amino]-propionic acid]
167 µM | O=C(O)CCNC(=O)c1ncc2ccc(=O)n(Cc3ccccc3)c2c1O [Example 70, 3-[(1-Benzyl-8-hydroxy-2-oxo-1,2-dihydro-[1,6]naphthyridine-7-carbonyl)-amino]-propionic acid]
177 µM | N#Cc1nc(C(=O)NCc2ccnnc2)c(O)c2ccn(Cc3ccccc3)c(=O)c12 [Example 60, 7-Benzyl-1-cyano-4-hydroxy-8-oxo-7,8-dihydro-[2,7]naphthyridine-3-carboxylic acid (pyridazin-4-ylmethyl)-amide]
200 µM | CC(C)(CNC(=O)c1nc(-c2cccnc2)c2c(cc(-c3ccccc3)c(=O)n2Cc2ccccc2)c1O)C(=O)O [Example 191, 3-[(1-Benzyl-5-hydroxy-2-oxo-3-phenyl-8-pyridin-3-yl-1,2-dihydro-[1,7]naphthyridine-6-carbonyl)-amino]-2,2-dimethyl-propionic acid]
